Experimental data as given in patent publication US6348571B1, “Corticotropin release inhibiting factor and methods of using same” (Northwestern University, priority 1994, dated 2002).

What was measured:
[1] = tested on: SCW-induced inflammatory response; experiment: Thyroid status and SCW-induced inflammatory response in female rats; type: in vivo, rat
Source text: RA is an autoimmune disease characterized by chronic degradation of the joints resulting from inflammation of synovial membranes. SCW-induced inflammation in the autoimmune prone female Lewis rat is an accepted animal model for the study of RA. […] It is likely that increased thyroid activity decreases the susceptibility to inflammatory immune disease by increasing glucocorticoid levels. The discovery of CRIF encoded within the same precursor as TRH establishes a direct link between the HPA and thyroid axes. Thyroid hormones may play a fundamental role in regulating the HPA axis by modulation of levels of prepro-TRH mRNA.
To determine the role played by thyroid hormones and concomitant changes in the HPA axis in the development of SCW-induced inflammatory response, expression of genes which reflect the status of thyroid function (TRH), pituitary-adrenal activity (POMC) and inflammation (IL-1β and MIP-1α, a macrophage specific inflammatory protein) was measured. Adult female rats were fed a regular diet (control), or a regular diet plus 0.012% T4 (hyperthyroid) or 0.05% 6-propyl-thiouracil (PTU) supplied in the in drinking water (hypothyroid), for seven weeks. A preparation of SCW (20 μg/g of body weight) was administered intraperitoneally to the rats three days before decapitation. Anterior pituitary POMC, hypothalamic TRH and peritoneal macrophage IL-1β and MIP-1α mRNA levels were assessed by Northern blot hybridization analysis using specific cDNA probes. The levels of mRNA were normalized to the housekeeping gene, GAPD, and were quantified by image analysis densitometry. Plasma levels of TSH and CORT were determined by RIA.

[2] = tested on: SCW-induced inflammatory response; conditions: Rittenhouse et al., 1995; cited from earlier work
[3] = tested on: AtT-20 cells; experiment: Transfection of AtT-20 cells with prepro-TRH expression plasmids: ACTH secretion (RIA); type: cell-based, mouse; conditions: concluded from deletion studies and known prepro-TRH processing
Source text: The expression vector pCMV-TRH comprises cDNA encoding rat TRH under the control of the human cytomegalovirus (HCMV) immediate early promoter (Lee et al., 1988, J. Biol. Chem. 263:16604-16609). To generate this vector, a 1,322 bp fragment comprising sequences encoding TRH was excised from the plasmid pSP64, by digestion with HindIII and EcoRI. This fragment was then inserted into pcDNA-3 (Invitrogen, San Diego, Calif.) to generate pCMV-TRH comprising the HCMV immediate early promoter, the bovine growth hormone polyadenylation signal and cDNA encoding TRH inserted therebetween. This plasmid also contains sequences encoding resistance to neomycin and can therefore be used to select stably transfected cells.
Referring to FIG. 1, two deletions were made in the expression vector pCMV-TRH. The first deletion, ΔBstEII, contains a deletion between nucleotides 506 and 787 in TRH cDNA. […] To generate ΔBstEII, pCMV-TRH was digested with BstEII, and a 6.4 kb fragment was isolated therefrom. The 5′ sticky ends were filled in with Klenow to create blunt ends, and the 6.4 kb fragment was then religated to form ΔBstEII. This religation results in restoration of the original wild type reading frame. […]
ACTH-like immunoreactivity was measured using an antiserum which reacts with amino acids 1-24 and 1-39 on ACTH on an equimolar basis. […]

[4] = tested on: GH3 cells; experiment: T3 treatment of GH3 cells transfected with human prepro-TRH: TRH mRNA expression; type: cell-based, rat; conditions: 1-100 nM

Compound: N[C@@H](Cc1cc(I)c(Oc2cc(I)c(O)c(I)c2)c(I)c1)C(=O)O [T4, thyroxin]
- increase in macrophage MIP-1α mRNA levels on SCW administration ([1]; SCW 20 μg/g ip, SCW-administered control rats 17-fold): 1.7 fold
- plasma CORT levels ([1]; altered thyroid status, FIG. 12E): significant increase
- decrease of hypothalamic TRH mRNA levels ([1]; hyperthyroid group, 0.012% in diet, seven weeks): 20%
- inflammatory effects of SCW-induced autoimmune responses [2]: decreases the adverse inflammatory effects

Compound: prepro-TRH 172-199: includes the uncleaved fourth TRH portion covalently bound to the amino terminal portion of peptide 178-199 (QHPGRRFIDPELQRSWEEKEGEGVLMPE; UniProt P01150 172-199, looked up, fragment)
- CRIF activity [3]: has CRIF activity

Compound: N[C@@H](Cc1cc(I)c(Oc2ccc(O)c(I)c2)c(I)c1)C(=O)O [T3]
- expression of TRH mRNA [4]: suppressing expression of TRH mRNA
